The experiment relates to nude mice, HT29 intrarenal xenograft, tumor weight T/C. Briefly: NCI In Vivo Anticancer Drug Screen. Data for tumor model HT29;CX-1 Human Adenocarcinoma (MER+) (intrarenal inoculation) in NU/NU Swiss (nude) mice. As to conditions: endpoint: mean tumor weight change, higher = larger tumour. An outline of the steps: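 Mice with transplanted tumors are dosed with compound while controls get vehicle only. Survival or tumor burden is then assessed per group, and the treated value is expressed relative to control.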

Setting [1] is: dose: 100.0 mg/kg/injection, schedule: Q01DX010 (sc), vehicle: saline.
[2] abbreviates: dose: 200.0 mg/kg/injection, schedule: Q04DX004 (sc), vehicle: saline with Tween-80.
The mark [3] stands for this setting: dose: 400.0 mg/kg/injection, schedule: Q04DX004 (sc), vehicle: saline with Tween-80.
The mark [4] stands for this setting: dose: 300.0 mg/kg/injection, schedule: Q04DX004 (sc), vehicle: saline with Tween-80.
Setting [5] is: dose: 600.0 mg/kg/injection, schedule: Q04DX004 (sc), vehicle: saline with Tween-80.

“And” between values parts separate entries of the source, which are not always exact repeats. Equal values may be shown once. Results filed as inconclusive are left out.

With `C[C@]12CCC(=O)C=C1CC[C@@H]1[C@@H]2C(=O)C[C@@]2(C)[C@H]1CC[C@]2(O)C(=O)CO`, the T/C by setting is: (dose: 300.0 mg/kg/injection, schedule: Q04DX004 (sc), vehicle: Klucel (hydroxypropylcellulose) (HPC)) 55 % of control; (dose: 600.0 mg/kg/injection, schedule: Q04DX004 (sc), vehicle: Klucel (hydroxypropylcellulose) (HPC)) 42 % of control; (dose: 1200.0 mg/kg/injection, schedule: Q04DX004 (sc), vehicle: Klucel (hydroxypropylcellulose) (HPC)) 42 % of control.
As for `CN(CO)c1nc(N(C)CO)nc(N(C)CO)n1`, the T/C runs as follows: (dose: 25.0 mg/kg/injection, schedule: Q01DX010 (sc), vehicle: saline) 65 % of control and 81 % of control; under setting [1], 17 % of control.
In the case of `CCCC(=O)Nc1ncnc2c1ncn2C1OC2COP(=O)(O)OC2C1OC(=O)CCC` (stereo not given), the T/C is 106 % of control under setting [1]; 18 % of control (dose: 200.0 mg/kg/injection, schedule: Q01DX010 (sc), vehicle: saline); 80 % of control (dose: 400.0 mg/kg/injection, schedule: Q01DX010 (sc), vehicle: saline); 44 % of control (dose: 800.0 mg/kg/injection, schedule: Q01DX010 (sc), vehicle: saline).
With `COc1cc(NS(C)(=O)=O)ccc1Nc1c2ccccc2nc2ccccc12`, the T/C (dose: 0.38 mg/kg/injection, schedule: Q01DX010 (sc), vehicle: other) is 33 % of control; the T/C (dose: 0.75 mg/kg/injection, schedule: Q01DX010 (sc), vehicle: lactic acid) is 43 % of control; the T/C (dose: 0.75 mg/kg/injection, schedule: Q01DX010 (sc), vehicle: other) is 15 % of control; the T/C (dose: 0.78 mg/kg/injection, schedule: Q01DX010 (sc), vehicle: lactic acid) is 15 % of control; the T/C (dose: 1.5 mg/kg/injection, schedule: Q01DX010 (sc), vehicle: lactic acid) was 30 % of control; the T/C (dose: 1.5 mg/kg/injection, schedule: Q01DX010 (sc), vehicle: other) is 39 % of control. Further, the T/C (dose: 3.0 mg/kg/injection, schedule: Q01DX010 (sc), vehicle: other) was 99 % of control.
Turning to `NC(=S)N/N=C\c1ncccc1OCc1cccc(N)c1`, the T/C is 220 % of control (dose: 225.0 mg/kg/injection, schedule: Q04DX004 (sc), vehicle: saline with Tween-80); 102 % of control (dose: 450.0 mg/kg/injection, schedule: Q04DX004 (sc), vehicle: saline with Tween-80); 121 % of control (dose: 900.0 mg/kg/injection, schedule: Q04DX004 (sc), vehicle: saline with Tween-80); 99 % of control (dose: 1800.0 mg/kg/injection, schedule: Q04DX004 (sc), vehicle: saline with Tween-80).
As for `COc1ccc2c(NCCCCCCNc3c4ccccc4nc4cc(OC)ccc34)c3ccccc3nc2c1`, the T/C (dose: 0.62 mg/kg/injection, schedule: Q01DX010 (sc), vehicle: lactic acid) is 87 % of control; the T/C (dose: 1.25 mg/kg/injection, schedule: Q01DX010 (sc), vehicle: lactic acid) is 73 % of control; the T/C (dose: 2.5 mg/kg/injection, schedule: Q01DX010 (sc), vehicle: lactic acid) is 71 % of control; the T/C (dose: 30.0 mg/kg/injection, schedule: Q01DX010 (sc), vehicle: lactic acid) was 71 % of control.
In the case of `COc1cc2cc(c1Cl)N(C)C(=O)CC(OC(=O)CC(C)C)C1(C)OC1C(C)C1CC(O)(NC(=O)O1)C(OC)/C=C/C=C(C)C2` (stereo not given), the T/C (dose: 125.0 micrograms/kg/injection, schedule: Q04DX004 (sc), vehicle: saline + alcohol) is 87 % of control and 99 % of control; the T/C (dose: 500.0 micrograms/kg/injection, schedule: Q04DX004 (sc), vehicle: saline + alcohol) is 60 % of control.
For the compound `CC1(C)OC1CS(=O)c1ccccc1` (stereo not given), the T/C by setting is: under setting [2], 61 % of control; under setting [3], 117 % of control; (dose: 800.0 mg/kg/injection, schedule: Q04DX004 (sc), vehicle: saline with Tween-80) 94 % of control.
Turning to `O=C1N=C(Oc2ccccc2)SC1=O`, the T/C was 40 % of control (dose: 50.0 mg/kg/injection, schedule: Q04DX004 (sc), vehicle: saline with Tween-80); 76 % of control (dose: 100.0 mg/kg/injection, schedule: Q04DX004 (sc), vehicle: saline with Tween-80); 59 % of control under setting [2]; 78 % of control under setting [3].
Turning to `CC(=O)Nc1ccc(O)c(O)c1`, the T/C runs as follows: (dose: 150.0 mg/kg/injection, schedule: Q04DX004 (sc), vehicle: saline with Tween-80) 257 % of control; under setting [4], 56 % of control; under setting [5], 231 % of control; (dose: 2400.0 mg/kg/injection, schedule: Q04DX004 (sc), vehicle: saline with Tween-80) 110 % of control.
Consider `CC[C@](C)(O)C(=O)O[C@H]1C(=O)O[C@@H]2C[C@H]3C(C)=CC(=O)[C@@H](O)[C@]3(C)[C@H]3[C@@]4(O)OC[C@]32[C@@H]1[C@@H](C)[C@H]4O`, for which the T/C (dose: 0.25 mg/kg/injection, schedule: Q01DX010 (sc), vehicle: Klucel (hydroxypropylcellulose) (HPC)) was 55 % of control; the T/C (dose: 0.5 mg/kg/injection, schedule: Q01DX010 (sc), vehicle: Klucel (hydroxypropylcellulose) (HPC)) was 80 % of control; the T/C (dose: 1.0 mg/kg/injection, schedule: Q01DX010 (sc), vehicle: Klucel (hydroxypropylcellulose) (HPC)) is 61 % of control; the T/C (dose: 2.0 mg/kg/injection, schedule: Q01DX010 (sc), vehicle: Klucel (hydroxypropylcellulose) (HPC)) is 73 % of control.
For the compound `O=C1C(NCC(O)CO)=C(N2CC2)C(=O)C(NCC(O)CO)=C1N1CC1` (stereo not given), the T/C is, setting by setting: (dose: 4.0 mg/kg/injection, schedule: Q04DX004 (sc), vehicle: saline) 86 % of control; (dose: 8.0 mg/kg/injection, schedule: Q04DX004 (sc), vehicle: saline) 28 % of control; (dose: 16.0 mg/kg/injection, schedule: Q04DX004 (sc), vehicle: saline) 25 % of control.
For `N#C[Se-].c1ccc([Te+](c2ccccc2)c2ccccc2)cc1`, the T/C (dose: 12.5 mg/kg/injection, schedule: Q04DX004 (sc), vehicle: Klucel (hydroxypropylcellulose) (HPC)) is 64 % of control and the T/C (dose: 25.0 mg/kg/injection, schedule: Q04DX004 (sc), vehicle: Klucel (hydroxypropylcellulose) (HPC)) is 44 % of control.
On to `C1CCC2C[N-]CCC2C1.C1CCC2C[N-]CCC2C1.C1CCC2C[N-]CCC2C1.C1CCC2C[N-]CCC2C1.[Cl][Rh][Cl]` (stereo not given), for which the T/C by setting is: (dose: 9.0 mg/kg/injection, schedule: Q04DX004 (sc), vehicle: saline with Tween-80) 96 % of control; (dose: 18.0 mg/kg/injection, schedule: Q04DX004 (sc), vehicle: saline with Tween-80) 82 % of control; (dose: 36.0 mg/kg/injection, schedule: Q04DX004 (sc), vehicle: saline with Tween-80) 84 % of control; (dose: 72.0 mg/kg/injection, schedule: Q04DX004 (sc), vehicle: saline with Tween-80) 73 % of control.
For the compound `OCC1OC(n2cnc3cc(Cl)c(Cl)cc32)C(O)C1O` (stereo not given), the T/C under setting [4] is 111 % of control; the T/C under setting [5] is 60 % of control; the T/C (dose: 1200.0 mg/kg/injection, schedule: Q04DX004 (sc), vehicle: saline with Tween-80) is 122 % of control.
Regarding `CCCCCc1cc(/C=C2/N=C(c3ccc[nH]3)C=C2OC)[nH]c1C`, the T/C is, setting by setting: (dose: 4.0 mg/kg/injection, schedule: Q04DX004 (sc), vehicle: saline with Tween-80) 81 % of control; (dose: 8.0 mg/kg/injection, schedule: Q04DX004 (sc), vehicle: saline with Tween-80) 68 % of control; (dose: 16.0 mg/kg/injection, schedule: Q04DX004 (sc), vehicle: saline with Tween-80) 55 % of control and 72 % of control; (dose: 32.0 mg/kg/injection, schedule: Q04DX004 (sc), vehicle: saline with Tween-80) 76 % of control.
Take `CC(C)[C@](O)(C(=O)OCC1=CC[N+]2([O-])CC[C@@H](O)[C@@H]12)[C@H](C)O` (stereo not given in full): the T/C was 38 % of control (dose: 100.0 mg/kg/injection, schedule: Q01DX010 (sc), vehicle: water); 48 % of control (dose: 200.0 mg/kg/injection, schedule: Q01DX010 (sc), vehicle: water); 36 % of control (dose: 400.0 mg/kg/injection, schedule: Q01DX010 (sc), vehicle: water); 44 % of control (dose: 800.0 mg/kg/injection, schedule: Q01DX010 (sc), vehicle: water).
For `COc1cc(NCc2ccc3nc(N)nc(N)c3c2C)cc(OC)c1OC`, the T/C runs as follows: (dose: 9.35 mg/kg/injection, schedule: Q04DX004 (sc), vehicle: water) 88 % of control; (dose: 10.0 mg/kg/injection, schedule: Q01DX010 (sc), vehicle: sodium bicarbonate) 35 % of control; (dose: 18.7 mg/kg/injection, schedule: Q04DX004 (sc), vehicle: water) 117 % of control; (dose: 37.5 mg/kg/injection, schedule: Q04DX004 (sc), vehicle: water) 32 % of control.

The values above are taken from PubChem BioAssay AID206 (DTP/NCI, 2004).
